Experimental data as given in US11560373B2, “Compounds and their use as PDE4 activators” (Mironid Limited, priority 2018, dated 2023).

Columns and labels:
PDE4B1 = target: T1, PDE4B1 (Homo sapiens, UniProt Q07343); assay: PDE assay, [3H]cAMP hydrolysis by HEK-PDE4B1 cell lysate cytosol fraction; type: biochemical; conditions: mean % increase in counts over basal activity
T1 construct: stably expressed the full-length human PDE4D5, PDE4B1 and PDE4A4 long isoforms; made in house

MDCK cells [1] = assay: Inhibition of in vitro cyst formation in 3D culture of MDCK cells; type: cell-based, canine; conditions: 300 nM prostaglandin E2, 10 days; % Cyst Volume compared to vehicle
Source text: In this study, the well-established three-dimensional (3D) MDCK cell model is used to investigate the effects of PDE4 long form activators on the formation of kidney cysts and evaluate their potential in the treatment of polycystic kidney diseases. 3D cysts are generated based on the method of Mao et al. (Mao, Z., Streets, A. J., Ong, A. C. M. Am. J. Physiol. Renal Physiol. 300(6): F1375-F1384, 2011), with some modifications.
Type 1 collagen (Invitrogen) is first prepared on ice by neutralising an acidic stock solution (3 mg/ml) with 17 mM NaOH and diluting it to 1 mg/ml with DMEM, supplemented with 2% (v/v) FBS, 2 mM L-glutamine, 1,000 U penicillin and 1,000 μg streptomycin (DMEM-2% FBS). […]
Phase-contrast images are obtained on the Motic microscope (×4 magnification). 8 images are taken per condition and the cyst diameter measured (up to 150 cyst measurements per well). Cyst spheroid volume is calculated using the formula 4/3πr^3 where r is the radius of the spheroid. A mean cyst volume is then calculated per well. The mean cyst volume and standard deviation between the duplicate wells is then calculated and expressed as a % Cyst Volume compared to the vehicle only (DMSO+300 nM PGE2) control wells. […]

PDE4D5 = target: T2, PDE4D5 (Homo sapiens, UniProt Q08499); assay: PDE assay, [3H]cAMP hydrolysis by HEK-PDE4D5 cell lysate cytosol fraction; type: biochemical; conditions: 30 μM; mean % increase in counts over basal activity
T2 construct: stably expressed the full-length human PDE4D5, PDE4B1 and PDE4A4 long isoforms; made in house
T2 sequence (Q08499 1-745 isoform Q08499-6): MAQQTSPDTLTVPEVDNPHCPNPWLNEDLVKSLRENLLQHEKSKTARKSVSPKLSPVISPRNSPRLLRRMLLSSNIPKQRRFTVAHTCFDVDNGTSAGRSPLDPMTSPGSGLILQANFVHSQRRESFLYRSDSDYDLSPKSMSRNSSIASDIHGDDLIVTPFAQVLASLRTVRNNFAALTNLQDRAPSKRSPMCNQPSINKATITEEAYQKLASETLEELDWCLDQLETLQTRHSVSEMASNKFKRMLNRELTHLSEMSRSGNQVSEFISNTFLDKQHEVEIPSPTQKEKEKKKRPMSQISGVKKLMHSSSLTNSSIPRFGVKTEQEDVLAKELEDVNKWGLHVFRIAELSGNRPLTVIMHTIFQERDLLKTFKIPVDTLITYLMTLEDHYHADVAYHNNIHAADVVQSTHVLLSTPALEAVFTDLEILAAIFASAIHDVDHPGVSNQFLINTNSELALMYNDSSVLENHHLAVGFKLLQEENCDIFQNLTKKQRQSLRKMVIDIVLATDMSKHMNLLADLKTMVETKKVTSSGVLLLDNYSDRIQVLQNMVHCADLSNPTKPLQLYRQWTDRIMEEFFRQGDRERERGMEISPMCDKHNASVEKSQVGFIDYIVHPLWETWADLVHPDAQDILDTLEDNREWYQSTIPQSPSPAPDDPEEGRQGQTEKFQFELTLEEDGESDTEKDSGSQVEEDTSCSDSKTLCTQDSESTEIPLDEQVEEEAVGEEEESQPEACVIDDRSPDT
Method: (§1) HEK 293 cells were transfected with pDEST™ PDE4 expression vectors using Lipofectamine LTX/Plus reagent (Invitrogen) as outlined by the manufacturer and clonal isolates expanded to obtain cell lines that stably expressed the full-length human PDE4D5, PDE4B1 and PDE4A4 long isoforms and the full length human PDE4B2 short isoform. These were called the HEK-PDE4D5, HEK-PDE4B1, HEK-PDE4A4 and HEK-PDE4B2 cell lines, respectively.
(§2) HEK-PDE4D5 cells were seeded out in 100 mm plates and incubated at 37° C. in an atmosphere of 5% CO2, 95% air. Cell lysates were prepared using KHEM buffer [50 mM KCl, 10 mM EGTA, 50 mM HEPES (pH 7.2), 1.92 mM MgCl2].
(§3) To prepare the cell lysates, the 100 mm plates containing the cells were placed on ice and washed with ice-cold PBS (phosphate buffered saline, pH 7.4). KHEM buffer (500 μl) was added to the cells. Cells were then scraped off the plate and triturated using a needle (BD Microlance™ 0.8, 40 mm). The lysed cells were then centrifuged at 2000 rpm for 10 minutes to remove cell debris and the supernatant (cell lysate containing recombinant PDE4D5) was transferred to a fresh tube and kept on ice.
(§4) The cell lysate containing recombinant PDE4D5 was transferred into a centrifuge tube and placed into an ultracentrifuge (BECKMAN COULTER) and spun at high speed (100,000 g) for 30 minutes at 4° C. The cytosol fraction was then collected and its protein amount determined using a BCA protein assay.
(§5) PDE assays were performed in thin walled V-bottomed 96-well plates. The assays were performed at a final concentration of 10 mM Tris/5 mM MgCl2 plus PDE4D5 cell lysate cytosol fraction, containing over-expressed PDE4D5, with and without test compound. The lysate/compound mix were incubated together for 15 min at room temperature on an orbital shaker prior to addition of [^3H] cAMP (final concentration 1 μM [^3H] cAMP; Perkin Elmer) to a final volume of 50 μl per reaction. The reactions were then incubated for 10 minutes at 30° C., terminated by heating for 2 min at 95° C. and allowed to cool. Snake venom (12.5 μl of 1 mg/ml; Crotalus atrox, Sigma) was then added and the plates were agitated and incubated for a further 15 minutes at 30° C. Dowex ion exchange resin (Sigma, chloride form, 200-400 mesh; 200 μl; prepared as a 1:1 Dowex: water stock, thoroughly re-suspended and diluted 2:1 with ethanol) was then added to each well and the plates incubated for 15 min at room temperature on an orbital shaker ensuring sufficient agitation for resin suspension (550 RPM). The reaction mixture was then transferred to a 96 well filter plate (Millipore; […] pore size) and filtered into a receiving 96-well plate to remove the dowex suspension. 30 μL of the filtered solution was then transferred to the wells of an Opti-plate (Perkin Elmer) 96 well assay plate and 120 μl of Microscint 40 scintillation fluid was added. The plate was then placed on an orbital shaker for 10 min at high speed (900 RPM) to mix the sample with scintillation fluid prior to quantitation using a plate based scintillation counter (Top-Count).
(§6) The % increase in counts in the presence of test compound at a particular concentration indicates the % increase in enzyme activity at that concentration.

MDCK cells [2] = assay: Reduction of intracellular cAMP levels in forskolin stimulated MDCK cells; type: cell-based, canine; conditions: compound 40 min prior to forskolin (1 μM) for 20 min
Method: MDCK cells were seeded at 100,000 cells per well, and left to adhere overnight. The cells were then treated with the test compound for 40 minutes, prior to stimulation with forskolin (1 μM, Sigma) for 20 minutes. Media was aspirated, and hydrochloric acid (0.1 M) was added to lyse the cells. The cAMP assay (Enzo Life Sciences) was performed according to the manufacturer's instructions.

PDE4B2 = target: T3, PDE4B2 (Homo sapiens, UniProt Q07343); assay: PDE assay, [3H]cAMP hydrolysis by HEK-PDE4B2 cell lysate cytosol fraction (short form); type: biochemical; conditions: mean % increase in counts over basal activity
T3 construct: the full length human PDE4B2 short isoform; made in house
T3 sequence (Q07343 1-564 isoform Q07343-2): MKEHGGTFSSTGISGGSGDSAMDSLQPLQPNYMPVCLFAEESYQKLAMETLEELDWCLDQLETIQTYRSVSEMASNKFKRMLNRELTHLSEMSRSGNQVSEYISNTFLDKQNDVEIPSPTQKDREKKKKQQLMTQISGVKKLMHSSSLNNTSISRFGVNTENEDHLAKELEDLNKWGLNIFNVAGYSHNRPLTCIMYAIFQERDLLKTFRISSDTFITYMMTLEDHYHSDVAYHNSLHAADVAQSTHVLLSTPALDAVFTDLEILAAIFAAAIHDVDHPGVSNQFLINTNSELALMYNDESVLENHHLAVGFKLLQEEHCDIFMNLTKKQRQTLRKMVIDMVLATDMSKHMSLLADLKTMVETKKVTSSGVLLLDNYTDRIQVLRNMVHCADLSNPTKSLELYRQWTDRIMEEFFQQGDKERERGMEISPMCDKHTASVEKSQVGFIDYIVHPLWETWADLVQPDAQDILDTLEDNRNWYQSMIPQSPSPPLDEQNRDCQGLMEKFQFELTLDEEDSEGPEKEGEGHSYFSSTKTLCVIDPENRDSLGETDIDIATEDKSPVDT
Method: as §1, §2, §3, §4, §5, §6

PDE4A4 = target: T4, PDE4A4 (Homo sapiens, UniProt P27815); assay: PDE assay, [3H]cAMP hydrolysis by HEK-PDE4A4 cell lysate cytosol fraction; type: biochemical; conditions: mean % increase in counts over basal activity
T4 construct: stably expressed the full-length human PDE4D5, PDE4B1 and PDE4A4 long isoforms; made in house
T4 sequence (P27815 whole entry, canonical isoform): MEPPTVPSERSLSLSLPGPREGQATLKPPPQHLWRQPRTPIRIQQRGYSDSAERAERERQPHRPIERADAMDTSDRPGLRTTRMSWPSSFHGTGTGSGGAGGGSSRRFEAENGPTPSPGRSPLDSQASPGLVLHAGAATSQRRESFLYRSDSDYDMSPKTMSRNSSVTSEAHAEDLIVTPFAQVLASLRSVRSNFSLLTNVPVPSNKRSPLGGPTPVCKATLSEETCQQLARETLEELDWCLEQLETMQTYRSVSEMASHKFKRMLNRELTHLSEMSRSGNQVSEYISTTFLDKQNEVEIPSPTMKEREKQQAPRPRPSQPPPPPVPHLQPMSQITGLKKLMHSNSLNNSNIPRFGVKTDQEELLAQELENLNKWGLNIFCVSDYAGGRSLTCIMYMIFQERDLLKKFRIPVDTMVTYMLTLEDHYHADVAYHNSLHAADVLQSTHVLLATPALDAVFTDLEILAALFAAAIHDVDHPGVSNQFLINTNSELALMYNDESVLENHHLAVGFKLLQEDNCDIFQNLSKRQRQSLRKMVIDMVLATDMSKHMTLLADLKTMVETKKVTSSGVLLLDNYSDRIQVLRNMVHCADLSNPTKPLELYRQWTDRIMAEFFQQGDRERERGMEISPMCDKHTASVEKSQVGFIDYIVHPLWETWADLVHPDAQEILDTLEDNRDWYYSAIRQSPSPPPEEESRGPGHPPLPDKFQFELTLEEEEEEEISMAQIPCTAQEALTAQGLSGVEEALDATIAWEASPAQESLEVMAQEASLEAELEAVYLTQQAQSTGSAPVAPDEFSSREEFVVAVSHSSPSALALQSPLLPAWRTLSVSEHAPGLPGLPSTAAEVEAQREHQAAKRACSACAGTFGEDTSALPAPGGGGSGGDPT

T1 sequence (Q07343 whole entry, canonical isoform): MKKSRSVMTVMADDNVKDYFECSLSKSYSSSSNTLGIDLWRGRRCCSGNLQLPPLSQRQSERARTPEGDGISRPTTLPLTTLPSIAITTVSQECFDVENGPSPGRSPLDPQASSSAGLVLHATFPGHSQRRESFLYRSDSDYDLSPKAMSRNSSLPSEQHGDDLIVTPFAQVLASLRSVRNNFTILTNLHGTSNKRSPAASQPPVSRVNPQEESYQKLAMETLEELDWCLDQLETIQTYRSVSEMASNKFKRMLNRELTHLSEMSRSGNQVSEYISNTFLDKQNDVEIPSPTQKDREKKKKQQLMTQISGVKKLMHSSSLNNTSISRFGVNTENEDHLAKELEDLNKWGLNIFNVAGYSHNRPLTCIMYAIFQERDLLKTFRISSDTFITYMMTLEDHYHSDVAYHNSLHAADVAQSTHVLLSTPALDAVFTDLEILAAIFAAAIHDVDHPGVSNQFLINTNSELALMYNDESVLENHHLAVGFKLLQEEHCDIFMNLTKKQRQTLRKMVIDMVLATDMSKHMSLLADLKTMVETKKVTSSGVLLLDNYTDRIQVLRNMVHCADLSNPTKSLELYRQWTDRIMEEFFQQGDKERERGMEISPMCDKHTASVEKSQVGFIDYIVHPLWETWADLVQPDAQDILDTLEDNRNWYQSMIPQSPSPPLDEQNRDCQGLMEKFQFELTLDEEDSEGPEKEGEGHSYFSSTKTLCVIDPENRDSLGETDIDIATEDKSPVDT

% increase in PDE4B1 activity at 30 μM (PDE4B1) [%] | activation at 30 µM (PDE4D5) [%] | % increase in PDE4B2 activity at 30 μM (PDE4B2) [%] | % increase in PDE4A4 activity at 30 μM (PDE4A4) [%] | SMILES | cyst formation in 3D culture of MDCK cells (FIG. 3) (MDCK cells [1]) | intracellular cAMP levels in MDCK cells (FIG. 2) (MDCK cells [2])
99.4 | – | – | – | CCn1nc(-c2ccc(Cl)c(F)c2)nc1CC(=O)NCc1cccc(OC)c1 [Example 2, 2-[3-(4-Chloro-3-fluorophenyl)-1-ethyl-1H-1,2,4-triazol-5-yl]-N-(3-methoxybenzyl) acetamide] | – | –
– | 73.2 | −10.9 | – | CCn1nc(-c2ccc(Cl)c(F)c2)nc1CC(=O)NCc1cc(C)nc(C)c1 [Example 3, 2-[3-(4-Chloro-3-fluorophenyl)-1-ethyl-1H-1,2,4-triazol-5-yl]-N-((2,6-dimethylpyridin-4-yl)methyl)acetamide] | inhibition of cyst formation | reduction in intracellular cAMP levels
– | 99.9 | −2.9 | 92.5 | COCCn1nc(-c2ccc(Cl)c(F)c2)nc1CC(=O)NCc1cc(Cl)cc(Cl)c1 [Example 22, 2-[3-(4-Chloro-3-fluorophenyl)-1-(2-methoxyethyl)-1H-1,2,4-triazol-5-yl]-N-[(3,5-dichlorophenyl)methyl]acetamide] | – | –
– | 108 | −4.4 | 75.5 | CCn1nc(-c2ccc(Cl)c(OC(C)C)c2)nc1CC(=O)NCc1cc(Cl)cc(Cl)c1 [Example 34, 2-[3-(4-Chloro-3-isopropyloxyphenyl)-1-ethyl-1H-1,2,4-triazol-5-yl]-N-[(3,5-dichlorophenyl)methyl]acetamide] | – | –
